Assays:
SK-OV-3 = assay: NCI DTP cell line screen (SRB), Ovarian Cancer; format: cell-based, human
Method: (§1) Screening of compounds 70 and 71 against several cancer cell lines The human tumor cell lines of the cancer screening panel are grown in RPMI 1640 medium containing 5% fetal bovine serum and 2 mM L-glutamine. For a typical screening experiment, cells are inoculated into 96 well microtiter plates in 100 μL at plating densities ranging from 5,000 to 40,000 cells/well depending on the doubling time of individual cell lines. After cell inoculation, the microtiter plates are incubated at 37° C., 5% CO2, 95% air and 100% relative humidity for 24 h prior to addition of experimental drugs.
(§2) After 24 h, two plates of each cell line are fixed in situ with TCA, to represent a measurement of the cell population for each cell line at the time of drug addition (Tz). Experimental drugs are solubilized in dimethyl sulfoxide at 400-fold the desired final maximum test concentration and stored frozen prior to use. At the time of drug addition, an aliquot of frozen concentrate is thawed and diluted to twice the desired final maximum test concentration with complete medium containing 50 μg/ml gentamicin. Additional four, 10-fold or ½ log serial dilutions are made to provide a total of five drug concentrations plus control. Aliquots of 100 μl of these different drug dilutions are added to the appropriate microtiter wells already containing 100 μl of medium, resulting in the required final drug concentrations.
(§3) Following drug addition, the plates are incubated for an additional 48 h at 37° C., 5% CO2, 95% air, and 100% relative humidity. For adherent cells, the assay is terminated by the addition of cold TCA. Cells are fixed in situ by the gentle addition of 50 μl of cold 50% (w/v) TCA (final concentration, 10% TCA) and incubated for 60 minutes at 4° C. The supernatant is discarded, and the plates are washed five times with tap water and air dried. Sulforhodamine B (SRB) solution (100 μl) at 0.4% (w/v) in 1% acetic acid is added to each well, and plates are incubated for 10 minutes at room temperature. After staining, unbound dye is removed by washing five times with 1% acetic acid and the plates are air dried. Bound stain is subsequently solubilized with 10 mM trizma base, and the absorbance is read on an automated plate reader at a wavelength of 515 nm. For suspension cells, the methodology is the same except that the assay is terminated by fixing settled cells at the bottom of the wells by gently adding 50 μl of 80% TCA (final concentration, 16% TCA). Using the seven absorbance measurements [time zero, (Tz), control growth, (C), and test growth in the presence of drug at the five concentration levels (Ti)], the percentage growth is calculated at each of the drug concentrations levels. Percentage growth inhibition is calculated as: [(Ti−Tz)/(C−Tz)]×100 for concentrations for which Ti>/=Tz [(Ti−Tz)/Tz]×100 for concentrations for which Ti<Tz
(§4) Three dose response parameters are calculated for each experimental agent. […] The drug concentration resulting in total growth inhibition (TGI) is calculated from Ti=Tz. […] Values are calculated for each of these three parameters if the level of activity is reached; however, if the effect is not reached or is exceeded, the value for that parameter is expressed as greater or less than the maximum or minimum concentration tested.
(§5) The methods described were used to test compounds 70 and 71 on a panel of sixty cell lines under a screening service provided by the Developmental Therapeutics Program at the National Institutes of Health. Shown in FIG. 1C are 1, RPMI-8226 leukemia cells; 2; NCI-H322M non-small cell lung cancer cells; 3, HT29 colon cancer cells; 4, U251 CNS cancer cells; 5, SK-MEL-28 melanoma cancer cells; 6, SK-OV-3 ovarian cancer cells; 7, RXF 393 renal cancer cells; 8, PC-3 prostate cancer cells; 9, MDA-MB-231 breast cancer cells.

IGROV1 = assay: NCI DTP cell line screen (SRB), Ovarian Cancer; format: cell-based
Method: as §1, §2, §3, §4, §5

OVCAR-8 = assay: NCI DTP cell line screen (SRB), Ovarian Cancer; format: cell-based; details: OVCAR-8
Method: as §1, §2, §3, §4, §5

MALME-3M = assay: NCI DTP cell line screen (SRB), Melanoma; format: cell-based
LOX IMVI = assay: NCI DTP cell line screen (SRB), Melanoma; format: cell-based
Method: as §1, §2, §3, §4, §5

M14 = assay: NCI DTP cell line screen (SRB), Melanoma; format: cell-based
Method: as §1, §2, §3, §4, §5

SK-MEL-2 = assay: NCI DTP cell line screen (SRB), Melanoma; format: cell-based
Method: as §1, §2, §3, §4, §5

SK-MEL-28 = assay: NCI DTP cell line screen (SRB), Melanoma; format: cell-based
Method: as §1, §2, §3, §4, §5

COX-2 = COX-2 (Homo sapiens, UniProt P35354); assay: COX-2 inhibitory activity; format: biochemical; details: concentrations up to 50 μM
Sequence of COX-2 (P35354 18-604): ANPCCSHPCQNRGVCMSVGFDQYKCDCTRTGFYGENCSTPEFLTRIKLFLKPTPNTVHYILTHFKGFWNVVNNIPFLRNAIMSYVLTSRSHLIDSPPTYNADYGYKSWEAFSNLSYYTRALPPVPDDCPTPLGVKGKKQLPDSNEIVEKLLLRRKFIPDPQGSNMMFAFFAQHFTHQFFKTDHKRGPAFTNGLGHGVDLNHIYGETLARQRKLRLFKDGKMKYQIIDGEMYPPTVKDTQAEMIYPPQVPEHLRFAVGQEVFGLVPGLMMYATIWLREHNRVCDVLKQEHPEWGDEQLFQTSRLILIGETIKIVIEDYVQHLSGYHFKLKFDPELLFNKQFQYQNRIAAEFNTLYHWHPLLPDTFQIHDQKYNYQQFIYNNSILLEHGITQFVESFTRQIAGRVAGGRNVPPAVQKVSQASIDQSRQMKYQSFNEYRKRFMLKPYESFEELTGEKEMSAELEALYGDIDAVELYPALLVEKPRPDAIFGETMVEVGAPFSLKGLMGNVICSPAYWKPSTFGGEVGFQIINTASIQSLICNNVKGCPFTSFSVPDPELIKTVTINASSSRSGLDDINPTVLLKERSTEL

Question: NCC(=O)Nc1ccc(-n2nc(C(F)(F)F)cc2-c2ccc3c(ccc4ccccc43)c2)cc1 [Compound 70, 2-Amino-N-{4-[5-(2-phenanthrenyl)-3-(trifluoromethyl)-1H-pyrazol-1-yl]-phenyl}-acetamide] was tested. Which TGI (SK-OV-3) did it give?
Answer: Its TGI is 2.96E−06.

Question: What about the “Percent Growth” value (SK-OV-3; Log10 Concentration −4.0) of the same molecule?
Answer: The value was −24%.

Question: And the “Percent Growth” value (SK-OV-3; Log10 Concentration −5.0)?
Answer: The value was −79%.

Question: What about the “Percent Growth” value (SK-OV-3; Log10 Concentration −6.0) of the same molecule?
Answer: The value was 71%.

Question: And the “Percent Growth” value (SK-OV-3; Log10 Concentration −7.0)?
Answer: Its value is 98%.

Question: And the “Percent Growth” value (SK-OV-3; Log10 Concentration −8.0)?
Answer: Its value is 91%.

Question: What about the TGI (IGROV1) of the same molecule?
Answer: Its TGI is 3.97E−06.

Question: What about the “Percent Growth” value (IGROV1; Log10 Concentration −4.0) of the same molecule?
Answer: The value was −35%.

Question: What about the “Percent Growth” value (IGROV1; Log10 Concentration −5.0) of the same molecule?
Answer: Its value is −49%.

Question: What about the “Percent Growth” value (IGROV1; Log10 Concentration −6.0) of the same molecule?
Answer: The value was 74%.

Question: And the “Percent Growth” value (IGROV1; Log10 Concentration −7.0)?
Answer: The value was 107%.

Question: What about the “Percent Growth” value (IGROV1; Log10 Concentration −8.0) of the same molecule?
Answer: Its value is 97%.

Question: And the TGI (OVCAR-8)?
Answer: The TGI was 4.05E−06.

Question: And the “Percent Growth” value (OVCAR-8; Log10 Concentration −4.0)?
Answer: The value was −24%.

Question: What about the “Percent Growth” value (OVCAR-8; Log10 Concentration −5.0) of the same molecule?
Answer: The value was −33%.

Question: What about the “Percent Growth” value (OVCAR-8; Log10 Concentration −6.0) of the same molecule?
Answer: The value was 51%.

Question: What about the “Percent Growth” value (OVCAR-8; Log10 Concentration −7.0) of the same molecule?
Answer: The value was 102%.

Question: What about the “Percent Growth” value (OVCAR-8; Log10 Concentration −8.0) of the same molecule?
Answer: The value was 97%.

Question: What about the TGI (MALME-3M) of the same molecule?
Answer: The TGI was 3.67E−06.

Question: And the “Percent Growth” value (MALME-3M; Log10 Concentration −4.0)?
Answer: Its value is −56%.

Question: And the “Percent Growth” value (MALME-3M; Log10 Concentration −5.0)?
Answer: The value was −67%.

Question: And the “Percent Growth” value (MALME-3M; Log10 Concentration −6.0)?
Answer: The value was 87%.

Question: And the “Percent Growth” value (MALME-3M; Log10 Concentration −7.0)?
Answer: Its value is 93%.

Question: And the “Percent Growth” value (MALME-3M; Log10 Concentration −8.0)?
Answer: Its value is 92%.

Question: What about the TGI (LOX IMVI) of the same molecule?
Answer: Its TGI is 3.07E−06.

Question: And the “Percent Growth” value (LOX IMVI; Log10 Concentration −5.0)?
Answer: The value was −50%.

Question: And the “Percent Growth” value (LOX IMVI; Log10 Concentration −6.0)?
Answer: The value was 48%.

Question: What about the “Percent Growth” value (LOX IMVI; Log10 Concentration −7.0) of the same molecule?
Answer: The value was 76%.

Question: What about the “Percent Growth” value (LOX IMVI; Log10 Concentration −8.0) of the same molecule?
Answer: The value was 105%.

Question: And the TGI (M14)?
Answer: Its TGI is 5.37E−06.

Question: What about the “Percent Growth” value (M14; Log10 Concentration −4.0) of the same molecule?
Answer: Its value is −19%.

Question: What about the “Percent Growth” value (M14; Log10 Concentration −5.0) of the same molecule?
Answer: The value was −33%.

Question: What about the “Percent Growth” value (M14; Log10 Concentration −6.0) of the same molecule?
Answer: The value was 90%.

Question: What about the “Percent Growth” value (M14; Log10 Concentration −7.0) of the same molecule?
Answer: The value was 98%.

Question: And the “Percent Growth” value (M14; Log10 Concentration −8.0)?
Answer: The value was 98%.

Question: What about the TGI (SK-MEL-2) of the same molecule?
Answer: Its TGI is 5.40E−06.

Question: What about the “Percent Growth” value (SK-MEL-2; Log10 Concentration −4.0) of the same molecule?
Answer: Its value is −28%.

Question: And the “Percent Growth” value (SK-MEL-2; Log10 Concentration −5.0)?
Answer: The value was −37%.

Question: And the “Percent Growth” value (SK-MEL-2; Log10 Concentration −6.0)?
Answer: The value was 100%.

Question: What about the “Percent Growth” value (SK-MEL-2; Log10 Concentration −7.0) of the same molecule?
Answer: The value was 117%.

Question: What about the “Percent Growth” value (SK-MEL-2; Log10 Concentration −8.0) of the same molecule?
Answer: Its value is 114%.

Question: What about the TGI (SK-MEL-28) of the same molecule?
Answer: The TGI was 2.64E−06.

Question: And the “Percent Growth” value (SK-MEL-28; Log10 Concentration −4.0)?
Answer: The value was −59%.

Question: What about the “Percent Growth” value (SK-MEL-28; Log10 Concentration −5.0) of the same molecule?
Answer: The value was −87%.

Question: What about the “Percent Growth” value (SK-MEL-28; Log10 Concentration −6.0) of the same molecule?
Answer: Its value is 63%.

Question: And the “Percent Growth” value (SK-MEL-28; Log10 Concentration −7.0)?
Answer: The value was 83%.

Question: And the “Percent Growth” value (SK-MEL-28; Log10 Concentration −8.0)?
Answer: The value was 94%.

Question: And the COX-2 inhibitory activity (COX-2)?
Answer: The COX-2 inhibitory activity was “nor was any measurable COX-2 inhibitory activity detected”.
